Reference: the supplement of paper PMC4862054

Legend:
Conditions in all cases: incubation time: 72 h
BT-549 = assay: drug sensitivity score (DSS), CellTiter-Glo (DSS (AUC-based score)); higher = stronger drug effect (viability inhibition or cytotoxicity); extreme values may be limits of the assay
Summary of the method: (§1)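 Normalisation on every plate relied on 0.1 % DMSO and a positive kill control. The plates, 384-well format, held compound at 5 concentrations 10-fold apart across a compound-specific 10,000-fold range, and breast cancer cell lines in 20 µl suspension were incubated on them for 72 h before CellTox Green and then CellTiter-Glo readings. The drug sensitivity score derives from the area under the fitted dose-response curve.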

HCC1599 = assay: as above
Summary of the method: as §1

HCC1937 = assay: as above
Summary of the method: as §1

CAL-120 = assay: as above
Summary of the method: as §1

HCC1143 = assay: as above
Summary of the method: as §1

CAL-51 = assay: as above
Summary of the method: as §1

MDA-MB-468 = assay: as above
Summary of the method: as §1

MDA-MB-231 = assay: as above
Summary of the method: as §1

MFM-223 = assay: as above
Summary of the method: as §1

BT-474 = assay: as above
Summary of the method: as §1

CAL-85-1 [1] = assay: as above
Summary of the method: as §1

HDQ-P1 [2] = assay: as above
Summary of the method: as §1

CAL-148 [3] = assay: as above
Summary of the method: as §1

Hs578T [4] = assay: as above
Summary of the method: as §1

SK-BR-3 = assay: as above
Summary of the method: as §1

MCF-10A = assay: as above
Summary of the method: as §1

MDA-MB-453 = assay: as above
Summary of the method: as §1

MDA-MB-436 [5] = assay: as above
Summary of the method: as §1

DU-4475 [6] = assay: as above
Summary of the method: as §1

CAL-85-1 [7] = assay: normalised viability (% of control), CellTiter-Blue; higher = more viable cells (about 100 = DMSO control)
Summary of the method: (§2)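 Compound dissolved in 5 µl medium was pre-loaded into 384-well plates, and breast cancer cell lines in 20 µl suspension were seeded on top and incubated 72 h. After adding 2.5 µl CellTiter-Blue reagent for 2 h at 37 °C, fluorescence was read at 560/590 nm. Plates were normalised to vehicle (100) and a positive kill control (0), with Z'-factor quality control. Each value is normalised viability at a single listed concentration from the series.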

HDQ-P1 [8] = assay: as above
Summary of the method: as §2

CAL-148 [9] = assay: as above
Summary of the method: as §2

Hs578T [10] = assay: as above
Summary of the method: as §2

MDA-MB-436 [11] = assay: as above
Summary of the method: as §2

DU-4475 [12] = assay: as above
Summary of the method: as §2

Structure (SMILES)	drug sensitivity score (BT-549)	drug sensitivity score (HCC1599)	drug sensitivity score (HCC1937)	drug sensitivity score (CAL-120)	drug sensitivity score (HCC1143)	drug sensitivity score (CAL-51)	drug sensitivity score (MDA-MB-468)	drug sensitivity score (MDA-MB-231)	drug sensitivity score (MFM-223)	drug sensitivity score (BT-474)	drug sensitivity score (CAL-85-1 [1])	drug sensitivity score (HDQ-P1 [2])	drug sensitivity score (CAL-148 [3])	drug sensitivity score (Hs578T [4])	drug sensitivity score (SK-BR-3)	drug sensitivity score (MCF-10A)	drug sensitivity score (MDA-MB-453)	drug sensitivity score (MDA-MB-436 [5])	drug sensitivity score (DU-4475 [6])	other results
CC(C)(C)Cn1c(N)nc2ccc(-c3[nH]c(C(C)(C)C)nc3-c3ccc(F)cc3)nc21	1.72	0	0	0.0489	0	0	2.74	0	1.18	0.606	0	0	0	0	0.963	3.14	1.72	0	0	
Cn1cc(C[C@@H](N)C(=O)O)c2ccccc21 [1-methyl-D-tryptophan]	0	0	0	0	0	0	0	0	0	0	0	0	0	0	0	0	0	0	0	
CC[C@H](CC#N)OC(=O)N[C@@H](C)c1cccc(NC(=O)Nc2ccc(-c3cnco3)c(OC)c2)c1 [AVN944]	15.9	11.4	9.9	8.08	11.7	16.5	17.1	9.58	6.05	8.56	13.1	11.7	12.5	10.1	9.68	8.88	0	12.9	13.4	
Cc1c(N)nc([C@H](CC(N)=O)NC[C@H](N)C(N)=O)nc1C(=O)N[C@H](C(=O)N[C@H](C)[C@@H](O)[C@H](C)C(=O)N[C@H](C(=O)NCCc1nc(-c2nc(C(=O)NCCC[S+](C)C)cs2)cs1)[C@@H](C)O)[C@@H](OC1OC(CO)C(O)C(O)C1OC1OC(CO)C(O)C(OC(N)=O)C1O)c1cnc[nH]1 (stereo partly specified) [Bleomycin]	8.65	0	2.76	0.67	4.08	16.1	0	0	0	0	0	0	4.27	0	2.43	0	0	4.49	0	normalised viability (CAL-85-1 [7]; 3 nM): 101%; normalised viability (CAL-85-1 [7]; 30 nM): 94.9%; normalised viability (CAL-85-1 [7]; 100 nM): 96.6%; normalised viability (HDQ-P1 [8]; 3 nM): 80.9%; normalised viability (HDQ-P1 [8]; 30 nM): 88.5%; normalised viability (HDQ-P1 [8]; 100 nM): 27.8%; normalised viability (CAL-148 [9]; 3 nM): 88%; normalised viability (CAL-148 [9]; 30 nM): 82.5%; normalised viability (CAL-148 [9]; 100 nM): 87%; normalised viability (Hs578T [10]; 10 nM): 90.3%; normalised viability (Hs578T [10]; 1000 nM): 64.3%; normalised viability (Hs578T [10]; 10000 nM): 50%; normalised viability (MDA-MB-436 [11]; 10 nM): 92.3%; normalised viability (MDA-MB-436 [11]; 1000 nM): 79%; normalised viability (MDA-MB-436 [11]; 10000 nM): 44.7%; normalised viability (DU-4475 [12]; 3 nM): 117%; normalised viability (DU-4475 [12]; 30 nM): 84.4%; normalised viability (DU-4475 [12]; 100 nM): 116%
Cc1cc2c(F)c(Oc3ncnn4cc(OC[C@@H](C)O)c(C)c34)ccc2[nH]1 [Brivanib]	0	0	0	0	0	1.49	0	0	0	0	0	0	0	0	0	0	0	0	0	normalised viability (CAL-85-1 [7]; 0.3 nM): 88.4%; normalised viability (CAL-85-1 [7]; 3 nM): 86.2%; normalised viability (CAL-85-1 [7]; 10 nM): 89.1%; normalised viability (HDQ-P1 [8]; 0.3 nM): 94.9%; normalised viability (HDQ-P1 [8]; 3 nM): 115%; normalised viability (HDQ-P1 [8]; 10 nM): 96.3%; normalised viability (CAL-148 [9]; 0.3 nM): 92.7%; normalised viability (CAL-148 [9]; 3 nM): 90.8%; normalised viability (CAL-148 [9]; 10 nM): 93.1%; normalised viability (Hs578T [10]; 1 nM): 98.1%; normalised viability (Hs578T [10]; 100 nM): 109%; normalised viability (Hs578T [10]; 1000 nM): 95.7%; normalised viability (MDA-MB-436 [11]; 1 nM): 113%; normalised viability (MDA-MB-436 [11]; 100 nM): 93%; normalised viability (MDA-MB-436 [11]; 1000 nM): 96.4%; normalised viability (DU-4475 [12]; 0.3 nM): 102%; normalised viability (DU-4475 [12]; 3 nM): 93.6%; normalised viability (DU-4475 [12]; 10 nM): 93.4%
CCc1cnn2c(NCc3ccc[n+]([O-])c3)cc(N3CCCC[C@H]3CCO)nc12 [Dinaciclib]	19.6	19.8	14.9	13.6	19.1	20.6	18.3	25.4	17.8	18.3	25.4	18.2	7.54	18.7	25.1	12.9	16	20.7	16.6	
Cc1c(C(=O)Nc2ccc(N3C[C@@H](C)O[C@@H](C)C3)nc2)cccc1-c1ccc(OC(F)(F)F)cc1 [Erismodegib]	1.37	0	0	0	0	4.99	1.28	0	1.41	3.21	0	0.664	0	0	0	0	0	2.73	0	
COc1cc(Nc2ncc(F)c(Nc3ccc4c(n3)N(COP(=O)(O)O)C(=O)C(C)(C)O4)n2)cc(OC)c1OC [Fostamatinib]	4.31	0	1.88	5.15	1.25	0	0	6.92	7.93	4.12	2.69	2.19	0	4.77	1.13	7.38	0	0	0	
CC(C)NC[C@@H](C(=O)N1CCN(c2ncnc3c2[C@H](C)C[C@H]3O)CC1)c1ccc(Cl)cc1 [GDC-0068]	6.02	0	3.46	3.43	2.35	8.39	8.65	0	16.6	0.706	2.16	7.19	19.6	3.59	6.46	3.41	10.4	1.1	1.13	
CCCc1cc(C)[nH]c(=O)c1CNC(=O)c1cc(-c2ccnc(N3CCN(C)CC3)c2)cc2c1cnn2C(C)C [GSK343]	1.73	3.37	0	0	0	0	5.85	4.65	2.85	3.79	1.9	0	0.724	0	6.24	0	6.37	1.6	1.22	
COc1cc2c(cc1-c1c(C)noc1C)ncc1[nH]c(=O)n([C@H](C)c3ccccn3)c12 [I-BET151]	8.5	0	2.32	5.1	1.94	3.89	3.38	2.63	6.13	3.77	8.93	3.02	0	9.14	3.27	5.37	7.96	0	3.45	
CC(C)n1nc(-c2ccc3oc(N)nc3c2)c2c(N)ncnc21 [INK128]	15.9	4.56	8.72	14.9	13	16.5	13.5	11.2	15.5	11.5	14.2	13.5	14.7	13.8	20.3	12	14.8	11.3	8.44	
Cc1c(C(=O)Nc2ccc(N3C[C@@H](C)O[C@@H](C)C3)nc2)cccc1-c1ccc(OC(F)(F)F)cc1 [NVP-LDE225]																				normalised viability (CAL-85-1 [7]; 3 nM): 100%; normalised viability (CAL-85-1 [7]; 30 nM): 86%; normalised viability (CAL-85-1 [7]; 100 nM): 104%; normalised viability (HDQ-P1 [8]; 3 nM): 76.2%; normalised viability (HDQ-P1 [8]; 30 nM): 84%; normalised viability (HDQ-P1 [8]; 100 nM): 84.9%; normalised viability (CAL-148 [9]; 3 nM): 99.6%; normalised viability (CAL-148 [9]; 30 nM): 101%; normalised viability (CAL-148 [9]; 100 nM): 106%; normalised viability (Hs578T [10]; 10 nM): 118%; normalised viability (Hs578T [10]; 1000 nM): 107%; normalised viability (Hs578T [10]; 10000 nM): 87%; normalised viability (MDA-MB-436 [11]; 10 nM): 83%; normalised viability (MDA-MB-436 [11]; 1000 nM): 29.2%; normalised viability (MDA-MB-436 [11]; 10000 nM): 67.3%; normalised viability (DU-4475 [12]; 3 nM): 105%; normalised viability (DU-4475 [12]; 30 nM): 112%; normalised viability (DU-4475 [12]; 100 nM): 96%
CN1CCc2c(c3ccccc3n2Cc2ccc(C(=O)NO)cc2)C1 [Tubastatin A]	0.314	0	1.2	0	2.45	11.2	0	0	0	0	0.989	0	0	0	1.22	0	0	0	0	
